Assay results published in ChEMBL document CHEMBL1151533, “Dihydropyrimidine calcium channel blockers 51: bicyclic dihydropyrimidines as potent mimics of dihydropyridines” (Bioorg Med Chem Lett, 1991).

Species on record: Oryctolagus cuniculus
Test: Compound was evaluated for vasorelaxant activity determined using potassium-depolarized rabbit thoracic aorta
Assay type: functional

IC50 | SMILES
54 nM | CC1=Nc2cc(=O)n(C(=O)c3ccccc3)n2C(c2cccc([N+](=O)[O-])c2)/C1=C(/O)OC(C)C (configuration not stated)
318 nM | CC1=Nc2cc(=O)[nH]n2C(c2cccc([N+](=O)[O-])c2)/C1=C(/O)OC(C)C (configuration not stated)
23 nM | CCCNC(=O)n1c(=O)cc2n1C(c1cccc([N+](=O)[O-])c1)/C(=C(/O)OC(C)C)C(C)=N2 (configuration not stated)
21 nM | CCO/C(O)=C1/C(C)=Nc2ccnn2C1c1cccc(Cl)c1Cl (configuration not stated)
7 nM | CC1=Nc2c(C#N)cnn2C(c2cccc([N+](=O)[O-])c2)/C1=C(/O)OC(C)C (configuration not stated)
1160 nM | COC(=O)c1cnn2c1N=C(C)/C(=C(\O)OC(C)C)C2c1cccc([N+](=O)[O-])c1 (configuration not stated)
96 nM | CCO/C(O)=C1/C(C)=Nc2nccn2C1c1cccc(Cl)c1Cl (configuration not stated)
5 nM | CC1=Nc2cc(=O)n(Cc3ccccc3)n2C(c2cccc([N+](=O)[O-])c2)/C1=C(/O)OC(C)C (configuration not stated)
3 nM | CCOC(=O)N1C(=S)N=C(C)/C(=C(/O)OCC)C1c1cccc([N+](=O)[O-])c1 (configuration not stated)
2890 nM | CCOC(=O)C1=C(C)N=C2NCCCN2C1c1cccc(Cl)c1Cl (configuration not stated)
1.5 nM | CCO/C(O)=C1/C(C)=Nc2c(C#N)cnn2C1c1cccc(Cl)c1Cl (configuration not stated)
620 nM | CCO/C(O)=C1/C(C)=Nc2nc(SC)nn2C1c1cccc(Cl)c1Cl (configuration not stated)
> 1000 nM | CC1=Nc2c(C(N)=O)cnn2C(c2cccc([N+](=O)[O-])c2)/C1=C(/O)OC(C)C (configuration not stated)
10 nM | CC1=Nc2cc(=O)n(S(=O)(=O)c3ccccc3)n2C(c2cccc([N+](=O)[O-])c2)/C1=C(/O)OC(C)C (configuration not stated)

SMILES | IC50
COC(=O)C1=C(C)NC(C)=C(C(=O)OC)C1c1ccccc1[N+](=O)[O-] [NIFEDIPINE] | 2.5 nM

What follows are molecules tested on Rattus norvegicus (assay: In vivo antihypertensive activity of compound was determined at 45 umol/kg administered orally in spontaneously hypertensive rats; % reduction in blood pressure).
Assay type: functional

SMILES | Reduction
CCO/C(O)=C1/C(C)=Nc2c(C#N)cnn2C1c1cccc(Cl)c1Cl (configuration not stated) | 20%
COC(=O)C1=C(C)NC(C)=C(C(=O)OC)C1c1ccccc1[N+](=O)[O-] [NIFEDIPINE] | 33%
